The values that follow come from PubChem BioAssay AID328 (DTP/NCI, 2004).

“And” between values parts separate entries of the source, which are not always exact repeats. Equal entries are not always repeated. Inconclusive results and toxic doses are left out.

This test has as its system BDF1 mice, P388 leukemia ip, median survival T/C. In words: NCI In Vivo Anticancer Drug Screen. Data for tumor model P388 Leukemia (intraperitoneal) in B6D2F1 (BDF1) mice. The following applies: endpoint: median survival time, higher = longer survival. An outline of the steps:
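In tumour-bearing mice, survival after compound treatment is set against the vehicle group and given as a quotient.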

Where [1] appears, read: dose: 100.0 mg/kg/injection, schedule: Q01DX009 (ip), vehicle: saline with Tween-80.
The mark [2] stands for this setting: dose: 200.0 mg/kg/injection, schedule: Q01DX009 (ip), vehicle: saline with Tween-80.
The mark [3] stands for this setting: dose: 400.0 mg/kg/injection, schedule: Q01DX009 (ip), vehicle: saline with Tween-80.
Where [4] appears, read: dose: 400.0 mg/kg/injection, schedule: Q04DX003 (ip), vehicle: saline with Tween-80.
Setting [5] is: dose: 50.0 mg/kg/injection, schedule: Q01DX009 (ip), vehicle: saline with Tween-80.
The mark [6] stands for this setting: dose: 100.0 mg/kg/injection, schedule: Q04DX003 (ip), vehicle: saline with Tween-80.
Where [7] appears, read: dose: 200.0 mg/kg/injection, schedule: Q04DX003 (ip), vehicle: saline with Tween-80.
Setting [8] is: dose: 100.0 mg/kg/injection, schedule: Q04DX003 (ip), vehicle: Klucel (hydroxypropylcellulose) (HPC).
[9] abbreviates: dose: 200.0 mg/kg/injection, schedule: Q04DX003 (ip), vehicle: Klucel (hydroxypropylcellulose) (HPC).

As for `CCCCN(CCCC)CCCC#N`, the T/C was 116 % of control (dose: 25.0 mg/kg/injection, schedule: Q01DX009 (ip), vehicle: saline); 100 % of control (dose: 25.0 mg/kg/injection, schedule: Q04DX003 (ip), vehicle: saline); 116 % of control (dose: 50.0 mg/kg/injection, schedule: Q01DX009 (ip), vehicle: saline); 96 % of control (dose: 50.0 mg/kg/injection, schedule: Q04DX003 (ip), vehicle: saline); 120 % of control (dose: 66.0 mg/kg/injection, schedule: Q01DX009 (ip), vehicle: saline with Tween-80); 103 % of control (dose: 100.0 mg/kg/injection, schedule: Q04DX003 (ip), vehicle: saline).
Turning to `COc1cccc2c1C(=O)c1c(O)c3c(c(O)c1C2=O)CC(O)(/C(C)=N\NC(=O)N/N=C(\C)C1(O)Cc2c(O)c4c(c(O)c2C(OC2CC(N)C(O)C(C)O2)C1)C(=O)c1c(OC)cccc1C4=O)CC3OC1CC(N)C(O)C(C)O1` (stereo not drawn), the T/C was 108 % of control (dose: 3.13 mg/kg/injection, schedule: Q04DX003 (ip), vehicle: water); 117 % of control (dose: 6.25 mg/kg/injection, schedule: Q04DX003 (ip), vehicle: water); 117 % of control (dose: 12.5 mg/kg/injection, schedule: Q04DX003 (ip), vehicle: water); 153 % of control (dose: 50.0 mg/kg/injection, schedule: Q04DX003 (ip), vehicle: water); 162 % of control (dose: 100.0 mg/kg/injection, schedule: Q04DX003 (ip), vehicle: water).
As to `CCCCCCC(=O)/C=C/c1ccc(Cl)cc1Cl`, the T/C under setting [1] was 109 % of control, the T/C under setting [2] is 94 % of control and the T/C under setting [3] was 98 % of control.
For `CC12CCCCC1=Nc1ccc3ccccc3c12` (stereo not drawn), the T/C (dose: 100.0 mg/kg/injection, schedule: Q01DX009 (ip), vehicle: saline + alcohol) is 93 % of control.
For the compound `O=C(Oc1ccc(Cl)cc1)c1ccc(C(=O)Oc2ccc(Cl)cc2)cc1`, the T/C was 90 % of control (dose: 176.0 mg/kg/injection, schedule: Q04DX003 (ip), vehicle: saline with Tween-80); 100 % of control (dose: 264.0 mg/kg/injection, schedule: Q04DX003 (ip), vehicle: saline with Tween-80); 90 % of control under setting [4].
For the compound `Nc1nc2c(ccc3ccccc32)s1`, the T/C reads like this: (dose: 25.0 mg/kg/injection, schedule: Q01DX009 (ip), vehicle: saline with Tween-80) 117 % of control; under setting [5], 117 % of control; under setting [1], 122 % of control.
In the case of `O=C1OC2CCC3C1C3C2Br` (stereo not drawn), the T/C is 95 % of control (dose: 2.32 mg/kg/injection, schedule: Q04DX003 (ip), vehicle: Klucel (hydroxypropylcellulose) (HPC)); 95 % of control (dose: 4.65 mg/kg/injection, schedule: Q04DX003 (ip), vehicle: Klucel (hydroxypropylcellulose) (HPC)); 95 % of control (dose: 9.3 mg/kg/injection, schedule: Q04DX003 (ip), vehicle: Klucel (hydroxypropylcellulose) (HPC)); 115 % of control (dose: 13.0 mg/kg/injection, schedule: Q04DX003 (ip), vehicle: Klucel (hydroxypropylcellulose) (HPC)); 115 % of control (dose: 21.0 mg/kg/injection, schedule: Q04DX003 (ip), vehicle: Klucel (hydroxypropylcellulose) (HPC)); 120 % of control (dose: 30.0 mg/kg/injection, schedule: Q04DX003 (ip), vehicle: Klucel (hydroxypropylcellulose) (HPC)). In addition, the T/C by setting is: (dose: 45.0 mg/kg/injection, schedule: Q04DX003 (ip), vehicle: Klucel (hydroxypropylcellulose) (HPC)) 109 % of control; (dose: 70.0 mg/kg/injection, schedule: Q04DX003 (ip), vehicle: Klucel (hydroxypropylcellulose) (HPC)) 95 % of control.
In the case of `CCOc1ccc(C(=O)Nc2c(C)cc(C)cc2C)cc1`, the T/C under setting [6] was 96 % of control, the T/C under setting [7] is 112 % of control and the T/C under setting [4] is 104 % of control.
`O=C(Nc1ccc2ncccc2c1)Nc1ccc2ncccc2c1`: the T/C is, setting by setting: (dose: 50.0 mg/kg/injection, schedule: Q01DX009 (ip), vehicle: Klucel (hydroxypropylcellulose) (HPC)) 87 % of control; (dose: 50.0 mg/kg/injection, schedule: Q04DX003 (ip), vehicle: Klucel (hydroxypropylcellulose) (HPC)) 91 % of control; (dose: 100.0 mg/kg/injection, schedule: Q01DX009 (ip), vehicle: Klucel (hydroxypropylcellulose) (HPC)) 95 % of control; under setting [8], 95 % of control; under setting [9], 91 % of control.
As for `CCOC(=O)Cc1c[nH]c2ccc(N(CCCl)CCCl)cc12`, the T/C (dose: 0.11 mg/kg/injection, schedule: Q04DX003 (ip), vehicle: Klucel (hydroxypropylcellulose) (HPC)) was 116 % of control; the T/C (dose: 0.17 mg/kg/injection, schedule: Q04DX003 (ip), vehicle: Klucel (hydroxypropylcellulose) (HPC)) is 120 % of control; the T/C (dose: 0.26 mg/kg/injection, schedule: Q04DX003 (ip), vehicle: Klucel (hydroxypropylcellulose) (HPC)) was 100 % of control; the T/C (dose: 0.5 mg/kg/injection, schedule: Q01DX009 (ip), vehicle: Klucel (hydroxypropylcellulose) (HPC)) is 154 % of control; the T/C (dose: 0.8 mg/kg/injection, schedule: Q01DX009 (ip), vehicle: Klucel (hydroxypropylcellulose) (HPC)) is 175 % of control; the T/C (dose: 0.9 mg/kg/injection, schedule: Q04DX003 (ip), vehicle: Klucel (hydroxypropylcellulose) (HPC)) is 154 % of control. The T/C was 250 % of control (dose: 1.3 mg/kg/injection, schedule: Q01DX009 (ip), vehicle: Klucel (hydroxypropylcellulose) (HPC)); 163 % of control (dose: 1.4 mg/kg/injection, schedule: Q04DX003 (ip), vehicle: Klucel (hydroxypropylcellulose) (HPC)); 272 % of control (dose: 2.0 mg/kg/injection, schedule: Q01DX009 (ip), vehicle: Klucel (hydroxypropylcellulose) (HPC)); 204 % of control (dose: 2.2 mg/kg/injection, schedule: Q04DX003 (ip), vehicle: Klucel (hydroxypropylcellulose) (HPC)); 230 % of control and 272 % of control (dose: 3.0 mg/kg/injection, schedule: Q01DX009 (ip), vehicle: Klucel (hydroxypropylcellulose) (HPC)); 222 % of control (dose: 3.3 mg/kg/injection, schedule: Q04DX003 (ip), vehicle: Klucel (hydroxypropylcellulose) (HPC)). Further, the T/C by setting is: (dose: 4.5 mg/kg/injection, schedule: Q01DX009 (ip), vehicle: Klucel (hydroxypropylcellulose) (HPC)) 154 % of control; (dose: 5.0 mg/kg/injection, schedule: Q04DX003 (ip), vehicle: Klucel (hydroxypropylcellulose) (HPC)) 245 % of control and 272 % of control; (dose: 6.0 mg/kg/injection, schedule: Q01DX009 (ip), vehicle: Klucel (hydroxypropylcellulose) (HPC)) 107 % of control; (dose: 7.5 mg/kg/injection, schedule: Q04DX003 (ip), vehicle: Klucel (hydroxypropylcellulose) (HPC)) 240 % of control; (dose: 8.0 mg/kg/injection, schedule: Q04DX003 (ip), vehicle: Klucel (hydroxypropylcellulose) (HPC)) 272 % of control; (dose: 12.5 mg/kg/injection, schedule: Q04DX003 (ip), vehicle: Klucel (hydroxypropylcellulose) (HPC)) 272 % of control.
For the compound `COc1ccc(CCNC(=O)Cc2ccc(OC)c(OC)c2)cc1OC`, the T/C reads like this: under setting [6], 100 % of control; under setting [7], 95 % of control; under setting [4], 100 % of control.
`CCCSCCCCSCCC`: the T/C reads like this: under setting [6], 109 % of control; under setting [7], 113 % of control; under setting [4], 109 % of control.
In the case of `COCC1OC(OC2OCC3OC4(OCC(O)(C(C)OC)C5OCOC54)OC3C2OC)C(OC)C(O)C1OC1OC(C)C(OC)C(OC2OC(C)C3OC4(CC(O)C(OC5CC(OC6CC(C)([N+](=O)[O-])C(OC)C(C)O6)C(OC(=O)c6c(C)c(Cl)c(O)c(Cl)c6OC)C(C)O5)C(C)O4)OC3(C)C2O)C1O` (stereo not drawn), under “dose: 12.5 mg/kg/injection, schedule: Q01DX009 (ip), vehicle: saline”, the T/C is 115 % of control.
Regarding `Nc1n[nH]c(N)n1.[Ni]`, the T/C reads like this: under setting [1], 100 % of control; under setting [6], 91 % of control; under setting [2], 95 % of control and 115 % of control; under setting [7], 87 % of control; under setting [3], 109 % of control; under setting [4], 100 % of control.
Turning to `CC(C)NC(=O)N(C(=O)C(F)(F)F)C(C)C`, the T/C under setting [5] was 105 % of control, the T/C under setting [1] was 94 % of control and the T/C under setting [2] is 95 % of control.
Regarding `S=P(Oc1ccccc1)(N1CC1)N1CC1`, the T/C (dose: 100.0 mg/kg/injection, schedule: Q01DX007 (ip), vehicle: DMSO) was 88 % of control; the T/C under setting [8] was 100 % of control; the T/C under setting [9] is 108 % of control; the T/C (dose: 400.0 mg/kg/injection, schedule: Q04DX003 (ip), vehicle: Klucel (hydroxypropylcellulose) (HPC)) was 100 % of control.
`CCCC(C#N)(CCCl)c1ccccc1` (stereo not drawn): the T/C reads like this: under setting [1], 100 % of control; under setting [2], 108 % of control; under setting [3], 112 % of control.
